This note sets out measurements from US20130261130A1, “NEUROTRYPSIN INHIBITORS” (priority 2010, published 2013).

For one data set, the target named is T1, Factor Xa (Homo sapiens, UniProt P00742).
T1 construct: Factor Xa; purchased American diagnostic
Kind of data set: Determination of the IC50 for various proteases: Factor Xa. The class given is biochemical. Conditions: Mean ± SD. As to the method: (§1) A 6 mM solution of the test compound in DMSO was prepared. In a V-bottom micro plate the 6 mM compound solution was diluted 6 times in DMSO to obtain a concentration row with the following concentrations: 6 mM, 1.8 mM, 540 μM, 162 μM, 48.8 μM, 14.4 μM, and 4 μM. From this DMSO master plate 1:20 dilutions in 10 mM MOPS pH 8.3 were prepared to obtain solutions of 300, 90, 27, 8.1, 2.44, 0.72 and 0.22 μM in MOPS buffer and 5% DMSO.
(§2) 100 μl of this solution were pipetted into a flat bottom 96 well microplate and placed into a Tecan infinite 200 plate reader. Before measurement, 50 μl of protease solution and, subsequently 50 μl substrate solution were added by the machine. The liberation of free para nitroanilide was detected at 405 nm. The protease solution was freshly prepared by diluting to the desired concentration from a stock solution in 60 mM MOPS; 600 mM NaCl; 20 mM CaCl2; 10% DMSO; 0.4% PEG 6000 pH 8.3. The substrate solution was prepared by dissolving the solid substrate in an adequate amount of water to get the desired concentrations. The used protease and substrate solutions are given below:
(§3) All enzymes except trypsin were from human origin (American diagnostic). Trypsin is hog trypsin (Sigma Aldrich). Substrates were purchased from Chromogenix. […]

In another data set the target is T2, uPA (Homo sapiens, UniProt P00749).
T2 construct: purchased American diagnostic
The data set is described as follows: Determination of the IC50 for various proteases: uPA. It counts as biochemical. Conditions: Mean ± SD. As to the method:
as §1, §2, §3

For another data set, the target named is T3, human neurotrypsin (Homo sapiens, UniProt P56730).
T3 sequence (P56730 21-875): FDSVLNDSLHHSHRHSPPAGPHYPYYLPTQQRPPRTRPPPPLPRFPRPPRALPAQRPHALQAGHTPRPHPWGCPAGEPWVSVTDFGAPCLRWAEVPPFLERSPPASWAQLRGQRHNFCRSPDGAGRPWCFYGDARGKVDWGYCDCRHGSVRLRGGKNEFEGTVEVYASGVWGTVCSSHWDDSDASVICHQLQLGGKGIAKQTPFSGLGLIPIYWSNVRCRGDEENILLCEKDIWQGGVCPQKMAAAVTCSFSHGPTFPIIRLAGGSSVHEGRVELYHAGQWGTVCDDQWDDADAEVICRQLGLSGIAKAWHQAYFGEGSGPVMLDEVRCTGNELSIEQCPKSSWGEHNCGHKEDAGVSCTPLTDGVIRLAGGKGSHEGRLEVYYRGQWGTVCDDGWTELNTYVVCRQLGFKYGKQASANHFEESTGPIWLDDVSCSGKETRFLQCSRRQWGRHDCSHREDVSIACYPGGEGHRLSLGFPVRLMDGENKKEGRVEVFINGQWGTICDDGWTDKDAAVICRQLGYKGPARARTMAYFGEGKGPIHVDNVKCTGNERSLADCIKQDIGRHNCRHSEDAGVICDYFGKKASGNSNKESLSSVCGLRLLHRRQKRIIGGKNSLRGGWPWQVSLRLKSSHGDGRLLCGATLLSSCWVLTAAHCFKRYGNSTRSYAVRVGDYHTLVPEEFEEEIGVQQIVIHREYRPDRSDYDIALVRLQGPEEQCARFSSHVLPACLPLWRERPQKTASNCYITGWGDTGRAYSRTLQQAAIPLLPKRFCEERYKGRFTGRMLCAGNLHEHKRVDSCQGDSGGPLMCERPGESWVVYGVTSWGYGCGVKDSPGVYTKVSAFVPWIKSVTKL
The data set is described as follows: Determination of IC50 for human neurotrypsin. It counts as biochemical. As to the method: Assessment of the potency of compounds of examples 1-311 in inhibiting the enzymatic activity of human neurotrypsin was performed according to the method described in patent application WO 2006/1103261

The target of another data set is T4, Plasmin (Homo sapiens, UniProt P00747).
T4 construct: Plasmin; purchased American diagnostic
The data set is described as follows: Determination of the IC50 for various proteases: plasmin. The class given is biochemical. Conditions: Mean ± SD. As to the method: as §1, §2, §3

A further data set has as its target Kallikrein (Homo sapiens, UniProt P03952). The data set is described as follows: Determination of the IC50 for various proteases: kallikrein. The class given is biochemical. Conditions: Mean ± SD. As to the method:
as §1, §2, §3

The next data set has as its target T5, Trypsin (hog trypsin) (Sus scrofa, UniProt P00761).
T5 construct: Trypsin is hog trypsin (Sigma Aldrich); purchased Sigma Aldrich
Kind of data set: Determination of the IC50 for various proteases: trypsin. It counts as biochemical. Conditions: Mean ± SD. As to the method:
as §1, §2, §3

The target in a further data set is T6, Thrombin (Homo sapiens, UniProt P00734).
T6 construct: Thrombin; purchased American diagnostic
The data set is described as follows: Determination of the IC50 for various proteases: thrombin. It counts as biochemical. Conditions: Mean ± SD. As to the method: as §1, §2, §3

Another data set concerns the target T7, tPA (Homo sapiens, UniProt P00750).
T7 construct: purchased American diagnostic
The data set is described as follows: Determination of the IC50 for various proteases: tPA. It counts as biochemical. To be noted: Mean ± SD. As to the method: as §1, §2, §3

Data set [1] in a line: Effect of compound on body weight in mice. The class given is in vivo, C57/BL6 mice. To be noted: 25 mg/kg active ingredient, three intraperitoneal injections. As to the method: (§4) Adult (P50) C57/BL6 mice from Charles River were used for the experiments. All animal experiments are performed in accordance with international guidelines for proper conduct of animal experiment under jurisdiction of the Swiss law (Permit number ZH-18/2008). For every mouse in the experiment the well-being during the interventions is documented in a score sheet.
The mice are housed under optimal hygienic conditions (OHB) with controlled air-conditioning and lighting (temperature: 20-24° C., humidity: 55-65%, day/night cycle: 12 h/12 h, lights on 7 a.m.). Individually ventilated cages of type II, L (530 cm^2 floor space) with standard litter are used. A maximum of 6 mice is kept in each cage. Mice are fed with standard rodent chow (Extrudat, KLIBA NAFAG) ad libitum and have free access to drinking water. Animal colony is managed and maintained at BioSupport, Schlieren.
(§5) Example 119, mono-lysine salt, was prepared for the dosing as suspension in 20% DMSO, 80% PBS with a final concentration of 2.5 mg/ml active compound (corresponding to 3.13 mg/ml of the lysine salt). First, compound of Example 119, mono-lysine salt, was dissolved in DMSO at a concentration of 15.7 mg/ml. Then sterile PBS was added to get a final concentration of 3.13 mg/ml and the suspension was thoroughly vortexed. The suspension was kept at room temperature in the dark until used.
(§6) 5 adult mice were treated with 10 ml/kg of a 3.13 mg/ml suspension of Example 119, mono-lysine salt. This corresponds to a dose of 25 mg/kg active ingredient. As vehicle control 5 mice were treated with 10 ml/kg of 20% DMSO in PBS. Each mouse received three intraperitoneal injections. Between dose 1 and dose 2 there were 8 h, between dose 2 and dose 3 16 h. 5 h after the last injection the mice were euthanatized with CO2.
Before the first injection the mice were weighted and ˜100 μl of blood was collected from the lateral tail vein. Serum was prepared with centrifugation of blood samples in Microvette 500 Z-Gel tubes (10'000 g, 20° C., 5 min). […]

Data set [2] has as its system C-terminal agrin fragment (CAF). The data set is described as follows: Analysis of serum CAF levels by western blotting. The class given is in vivo, C57/BL6 mice. As to the method:
as §4, §5, §6
Before the first injection the mice were weighted and ˜100 μl of blood was collected from the lateral tail vein. Serum was prepared with centrifugation of blood samples in Microvette 500 Z-Gel tubes (10'000 g, 20° C., 5 min). Supernatant was transferred to an Eppendorf reaction tube and centrifuged again (21'000 g, 20° C., 5 min). Supernatant was transferred to screw top reaction tubes and the serum was stored at −20° C. until analysis. […]
After staining for CAF the membrane was washed thoroughly and reused for a staining for endogenous mouse antibodies that served as loading control. […] After imaging with a Stella imaging system (Raytest) the intensity of the CAF bands was measured with AIDA picture analysis software (Raytest) and normalized to the loading levels determined from mouse antibody light chains. […]
In general terms: In western blotting, separated proteins are transferred to a membrane and probed.

Where a name gives a salt, the structure may show the parent alone. Read-outs that look alike come from different tables or passages of the source.

For orientation: IC50 means the concentration that inhibits the measured activity by half.

T4 sequence (P00747 581-810 limits assumed): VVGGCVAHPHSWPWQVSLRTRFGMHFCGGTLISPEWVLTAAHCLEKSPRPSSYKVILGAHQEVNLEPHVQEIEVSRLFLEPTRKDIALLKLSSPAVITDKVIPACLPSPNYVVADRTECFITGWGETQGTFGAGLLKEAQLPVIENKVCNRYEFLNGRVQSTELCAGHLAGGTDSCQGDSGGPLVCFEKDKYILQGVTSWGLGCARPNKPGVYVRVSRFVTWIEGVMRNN
T4 sequence (P00747 97-580 partner limits assumed): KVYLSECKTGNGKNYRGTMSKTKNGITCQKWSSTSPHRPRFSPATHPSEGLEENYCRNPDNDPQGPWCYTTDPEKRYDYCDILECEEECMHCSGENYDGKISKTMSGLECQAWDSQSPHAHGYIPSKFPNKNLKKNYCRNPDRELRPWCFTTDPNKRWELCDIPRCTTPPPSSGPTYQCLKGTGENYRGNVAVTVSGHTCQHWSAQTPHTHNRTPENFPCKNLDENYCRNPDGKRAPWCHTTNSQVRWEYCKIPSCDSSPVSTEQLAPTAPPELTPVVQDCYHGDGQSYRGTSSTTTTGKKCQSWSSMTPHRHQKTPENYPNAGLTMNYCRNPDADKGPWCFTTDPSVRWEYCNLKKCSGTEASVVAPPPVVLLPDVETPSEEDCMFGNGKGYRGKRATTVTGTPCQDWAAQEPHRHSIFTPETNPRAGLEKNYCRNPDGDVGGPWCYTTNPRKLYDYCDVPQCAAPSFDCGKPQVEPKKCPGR
T5 sequence (P00761 9-231): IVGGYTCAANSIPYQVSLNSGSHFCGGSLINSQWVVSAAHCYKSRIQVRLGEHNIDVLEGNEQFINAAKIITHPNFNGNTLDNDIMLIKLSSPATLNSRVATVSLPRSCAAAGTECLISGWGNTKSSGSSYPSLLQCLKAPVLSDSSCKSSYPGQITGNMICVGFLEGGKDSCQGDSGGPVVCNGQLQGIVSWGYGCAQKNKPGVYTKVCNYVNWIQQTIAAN
Chain of Kallikrein (P03952 whole entry): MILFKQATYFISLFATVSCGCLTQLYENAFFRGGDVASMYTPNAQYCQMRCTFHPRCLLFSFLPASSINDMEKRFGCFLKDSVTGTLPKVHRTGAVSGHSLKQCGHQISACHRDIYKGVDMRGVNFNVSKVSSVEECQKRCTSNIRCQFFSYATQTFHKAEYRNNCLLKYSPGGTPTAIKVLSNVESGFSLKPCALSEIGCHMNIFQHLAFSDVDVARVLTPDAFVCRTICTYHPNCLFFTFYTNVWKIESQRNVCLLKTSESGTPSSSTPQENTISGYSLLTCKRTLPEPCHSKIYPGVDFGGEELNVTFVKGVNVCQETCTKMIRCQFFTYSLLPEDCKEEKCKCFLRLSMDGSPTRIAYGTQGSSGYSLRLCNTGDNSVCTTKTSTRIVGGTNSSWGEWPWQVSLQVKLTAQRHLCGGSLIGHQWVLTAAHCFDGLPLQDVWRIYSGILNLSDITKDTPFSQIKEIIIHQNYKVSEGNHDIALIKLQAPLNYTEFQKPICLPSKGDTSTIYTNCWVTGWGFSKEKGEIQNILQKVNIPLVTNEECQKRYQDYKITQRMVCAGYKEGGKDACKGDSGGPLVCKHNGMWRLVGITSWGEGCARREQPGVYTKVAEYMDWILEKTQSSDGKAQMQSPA
T7 sequence (P00750 36-562): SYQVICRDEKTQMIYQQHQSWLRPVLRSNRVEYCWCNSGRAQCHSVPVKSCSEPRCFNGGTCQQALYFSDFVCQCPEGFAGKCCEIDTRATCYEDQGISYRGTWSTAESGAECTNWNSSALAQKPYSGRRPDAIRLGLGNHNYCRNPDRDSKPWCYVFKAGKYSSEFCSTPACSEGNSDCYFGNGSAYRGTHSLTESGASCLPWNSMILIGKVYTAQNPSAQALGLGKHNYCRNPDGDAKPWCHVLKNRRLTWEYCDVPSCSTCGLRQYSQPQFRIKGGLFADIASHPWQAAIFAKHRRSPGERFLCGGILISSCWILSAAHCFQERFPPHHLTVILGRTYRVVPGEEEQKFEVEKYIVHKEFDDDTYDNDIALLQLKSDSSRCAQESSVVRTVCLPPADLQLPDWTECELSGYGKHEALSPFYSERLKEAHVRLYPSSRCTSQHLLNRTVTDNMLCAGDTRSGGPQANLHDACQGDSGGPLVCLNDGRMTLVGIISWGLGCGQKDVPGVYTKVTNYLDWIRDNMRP
T1 sequence (P00742 235-488 limits assumed): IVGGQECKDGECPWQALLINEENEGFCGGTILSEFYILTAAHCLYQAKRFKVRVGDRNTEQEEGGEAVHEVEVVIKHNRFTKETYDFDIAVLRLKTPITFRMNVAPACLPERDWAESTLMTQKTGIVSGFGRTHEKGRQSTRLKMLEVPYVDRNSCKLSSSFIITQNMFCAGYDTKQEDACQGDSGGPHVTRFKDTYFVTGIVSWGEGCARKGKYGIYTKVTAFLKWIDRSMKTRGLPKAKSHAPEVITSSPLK
T1 sequence (P00742 41-179 partner limits assumed): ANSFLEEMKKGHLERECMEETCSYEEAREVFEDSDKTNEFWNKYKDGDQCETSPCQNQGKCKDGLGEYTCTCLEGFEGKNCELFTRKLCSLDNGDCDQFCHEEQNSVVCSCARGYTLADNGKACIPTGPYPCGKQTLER

Turning to `O=C(Nc1ccc(Cl)cc1)c1ccc(NC(=O)c2ccc(-c3nc4cc(Cl)c(Cl)cc4[nH]3)cc2)c(C(=O)O)c1` [Example 119], the 50% inhibitory concentration (IC50) at Factor Xa is 39.8 ± 33.3 µM; at uPA, greater than 40 µM; on human neurotrypsin (Mean ± SD, read-out: IC50 Neurotrypsin), 0.51 ± 0.16 µM; at human neurotrypsin (human neurotrypsin, method of WO 2006/1103261, read-out: Neurotrypsin IC50) it was 0.4 µM; against Plasmin, 2.4 ± 1.6 µM; against Kallikrein, 27.1 ± 9.2 µM. In addition, the 50% inhibitory concentration (IC50) on Trypsin (hog trypsin) is greater than 150 µM; at Thrombin, 37.7 ± 25.2 µM; on tPA, 47.1 ± 22.4 µM.
On to `O=C(Nc1ccc(Cl)cc1)c1ccc(NC(=O)c2ccc(-c3nc4cc(Cl)c(Cl)cc4[nH]3)cc2)c(C(=O)O)c1` [Example 119, mono-lysine salt], for which the “increase in weight loss compared to the vehicle control” value in [1] (adult mice) is recorded as “does not produce any increase in weight loss compared to the vehicle control”. In addition, the Weight loss in data set [1] (adult mice, post-treatment/pre-treatment weight) is on record as less than 10%. Moreover, the “Average weight loss (% of T = 0 weigth)” value in [1] (mice, weighed before first injection and 5 h after last, n=5) is listed as 5.52 % of T = 0 weigth. The “CAF levels Average (AU)” value in data set [2] (pooled mouse serum, western blot, post-treatment, 25 mg/kg i.p. x3, normalized to loading control, KO background subtracted) stood at 0.38 AU. The “CAF levels Average (% of vehicle)” value in data set [2] (pooled mouse serum, western blot, post-treatment, 25 mg/kg i.p. x3, normalized to the vehicle level) is given as 56.15 % of vehicle. In data set [2] (serum, pooled samples, mice, 25 mg/kg active ingredient, three intraperitoneal injections, 5 h after last injection, mean ± standard deviation), the CAF levels was 56.2%±29.0 % of vehicle control.
